US7705030B2, “Amino-5-(5-membered)hetero-arylimidazolone compounds and the use thereof for β-secretase modulation” (Wyeth LLC, priority 2005, dated 2010)
Structures can show the parent of a compound that is named as a salt.

Columns and labels:
human BACE1 = human BACE1 (Homo sapiens, UniProt P56817); assay: Fluorescent kinetic assay: Evaluation of BACE-1 Binding Affinity of Test Compounds; format: biochemical; details: 10 nM enzyme, 25 μM substrate WABC-6, 50 mM Na-Acetate pH 4.5, room temperature
Chain of human BACE1 (P56817 46-501): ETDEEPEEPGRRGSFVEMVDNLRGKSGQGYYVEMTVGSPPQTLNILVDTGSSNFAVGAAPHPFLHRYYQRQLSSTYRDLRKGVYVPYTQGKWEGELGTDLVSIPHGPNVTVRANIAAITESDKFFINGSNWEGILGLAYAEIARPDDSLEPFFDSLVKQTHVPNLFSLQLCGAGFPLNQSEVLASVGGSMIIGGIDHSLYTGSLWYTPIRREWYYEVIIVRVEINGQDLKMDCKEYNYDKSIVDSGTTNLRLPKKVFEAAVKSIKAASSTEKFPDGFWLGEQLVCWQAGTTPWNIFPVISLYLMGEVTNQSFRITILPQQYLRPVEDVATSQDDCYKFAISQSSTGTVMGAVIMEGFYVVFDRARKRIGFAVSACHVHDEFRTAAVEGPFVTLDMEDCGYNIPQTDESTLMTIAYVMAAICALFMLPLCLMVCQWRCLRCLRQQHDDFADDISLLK
Method: Evaluation of BACE-1 Binding Affinity of Test Compounds
Fluorescent Kinetic Assays
Final Assay Conditions: 10 nM human BACE1 (or 10 nM Murine BACE1, 1.5 nM human BACE2), 25 μM substrate (WABC-6, MW 1549.6, from AnaSpec), Buffer: 50 mM Na-Acetate, pH 4.5, 0.05% CHAPS, 25% PBS, room temperature. Na-Acetate was from Aldrich, Cat.# 24, 124-5, CHAPS was from Research Organics, Cat. # 1304C 1×, PBS was from Mediatech (Cellgro), Cat# 21-031-CV, peptide substrate Abz[…]pa was from AnaSpec, Peptide Name: WABC-6 Determination of stock substrate (Abz[…]pa) concentration: ˜25 mM stock solution is made in DMSO using the peptide weight and MW, and diluted to ˜25 μM (1:1000) in 1×PBS. Concentration is determined by absorbance at 354 nm using an extinction coefficient ε of 18172 M^−1 cm^−1, the concentration of stock substrate is corrected, and the substrate stock stored in small aliquots in −80° C. [Substrate Stock]=ABS^354 nm*10^6/18172 (in […]) The extinction coefficient ε^354 nm was adapted from TACE peptide substrate, which had the same quencher-fluorophore pair.
Determination of Stock Enzyme Concentration: the stock concentration of each enzyme is determined by absorbance at 280 nm using an ε of 64150 M^−1 cm^−1 for hBACE1 and MuBACE1, 62870 M^−1 cm^−1 for hBACE2 in 6 M Guanidinium Hydrochloride (from Research Organics, Cat. # 5134G-2), pH ˜6. The extinction coefficient ε^280 nm for each enzyme was calculated based on known amino acid composition and published extinction coefficients for Trp ([…]) and Tyr ([…]) residues (Anal. Biochem. 182, 319-326).
Dilution and mixing steps: total reaction volume: 100 μL
2× inhibitor dilutions in buffer A(66.7 mM Na-Acetate, pH 4.5, 0.0667% CHAPS) were prepared,
4× enzyme dilution in buffer A(66.7 mM Na-Acetate, pH 4.5, 0.0667% CHAPS) were prepared,
100 μM substrate dilution in 1×PBS was prepared, and
50 μL 2× Inhibitor, 25 μL 100 μM substrate are added to each well of 96-well plate (from DYNEX Technologies, VWR #: 11311-046), immediately followed by 25 μL 4× enzyme (added to the inhibitor and substrate mix), and the fluorescence readings are initiated.
Fluorescence Readings: Readings at λex 320 nm and λem 420 nm are taken every 40 sec for 30 min at room temperature and the linear slope for substrate cleavage rate (vi) determined.
Testing at least 10 different inhibitor concentrations is preferred.

CCn1cc(C2(c3cccc(-c4cccnc4F)c3)N=C(N)N(C)C2=O)cc1/C=N/OC (stereo not shown) (as salt: hydrochloride) [Example 241, 4-[2-Amino-4-[3-(2-fluoropyridin-3-yl)phenyl]-1-methyl-5-oxo-4,5-dihydro-1H-imidazol-4-yl]-1-ethyl-1H-pyrrole-2-carbaldehyde O-methyloxime hydrochloride] gave a melting point of 190 to 193 °C.

In the case of Cc1c(C2(c3cccc(-c4cccnc4F)c3)N=C(N)N(C)C2=O)cnn1CC(F)(F)F (stereo not shown) [Example 2, 2-Amino-5-[3-(2-fluoropyridin-3-yl)phenyl]-3-methyl-5-[5-methyl-1-(2,2,2-trifluoroethyl)-1H-pyrazol-4-yl]-3,5-dihydro-4H-imidazol-4-one], the IC50 (human BACE1) is reported as 110 to 1000 nM and the melting point is reported as 235 to 238 °C.

For CC(C)Cn1cc(C2(c3cccc(-c4cccnc4F)c3)N=C(N)N(C)C2=O)cn1 (stereo not shown) [Example 3, 2-Amino-5-[3-(2-fluoropyridin-3-yl)phenyl]-5-(1-isobutyl-1H-pyrazol-4-yl)-3-methyl-3,5-dihydro-4H-imidazol-4-one], the IC50 (human BACE1) was 10 to 100 nM and the melting point was 94 to 98 °C.

In the case of CCCCn1cc(C2(c3cccc(-c4cccnc4F)c3)N=C(N)N(C)C2=O)cn1 (stereo not shown) [Example 4, 2-Amino-5-(1-butyl-1H-pyrazol-4-yl)-5-[3-(2-fluoropyridin-3-VI)phenyl]-3-methyl-3,5-dihydro-4H-imidazol-4-one], the IC50 (human BACE1) is reported as 10 to 100 nM and the melting point is reported as 88 to 92 °C.

For CC(C)Cn1cc(C2(c3cccc(-c4cncnc4)c3)N=C(N)N(C)C2=O)cn1 (stereo not shown) [Example 5, 2-Amino-5-(1-isobutyl-1H-pyrazol-4-yl)-3-methyl-5-(3-pyrimidin-5-ylphenyl)-3,5-dihydro-4H-imidazol-4-one], the IC50 (human BACE1) was 10 to 100 nM and the melting point was 118 to 122 °C.

Work on CCCCn1cc(C2(c3cccc(-c4cncnc4)c3)N=C(N)N(C)C2=O)cn1 (stereo not shown) [Example 6, 2-Amino-5-(1-butyl-1H-pyrazol-4-yl)-3-methyl-5-(3-pyrimidin-5-ylphenyl)-3,5-dihydro-4H-imidazol-4-one] yielded an IC50 (human BACE1) of 10 to 100 nM and a melting point of 94 to 98 °C.

In the case of CN1C(=O)C(c2ccc(F)c(-c3cccnc3F)c2)(c2cnn(CC(F)(F)F)c2)N=C1N (stereo not shown) [Example 7, 2-Amino-5-[4-fluoro-3-(2-fluoropyridin-3-yl)phenyl]-3-methyl-5-[1-(2,2,2-trifluoroethyl)-1H-pyrazol-4-yl]-3,5-dihydro-4H-imidazol-4-one], the IC50 (human BACE1) is reported as 110 to 1000 nM and the melting point is reported as greater than 225 °C.

Work on CN1C(=O)C(c2ccc(F)c(-c3cncnc3)c2)(c2cnn(CC(F)(F)F)c2)N=C1N (stereo not shown) [Example 8, 2-Amino-5-(4-fluoro-3-pyrimidin-5-ylphenyl)-3-methyl-5-[1-(2,2,2-trifluoroethyl)-1H-pyrazol-4-yl]-3,5-dihydro-4H-imidazol-4-one] yielded an IC50 (human BACE1) of 110 to 1000 nM and a melting point of 115 to 117 °C.

CCn1cc(C2(c3ccc(F)c(-c4cncnc4)c3)N=C(N)N(C)C2=O)cn1 (stereo not shown) [Example 9, 2-Amino-5-(1-ethyl-1H-pyrazol-4-yl)-5-(4-fluoro-3-pyrimidin-5-ylphenyl)-3-methyl-3,5-dihydro-4H-imidazol-4-one] gave an IC50 (human BACE1) of 10 to 100 nM and a melting point of 120 to 121 °C.

For CCn1cc(C2(c3ccc(F)c(-c4cccnc4F)c3)N=C(N)N(C)C2=O)cn1 (stereo not shown) [Example 10, 2-Amino-5-(1-ethyl-1H-pyrazol-4-yl)-5-[4-fluoro-3-(2-fluoropyridin-3-yl)phenyl]-3-methyl-3,5-dihydro-4H-imidazol-4-one], the IC50 (human BACE1) was 10 to 100 nM and the melting point was 84 to 85 °C.

For Cc1nn(CC(F)(F)F)cc1C1(c2cccc(-c3cccnc3F)c2)N=C(N)N(C)C1=O (stereo not shown) [Example 11, 2-Amino-5-[3-(2-fluoropyridin-3-yl)phenyl]-3-methyl-5-[3-methyl-1-(2,2,2-trifluoroethyl)-1H-pyrazol-4-yl]-3,5-dihydro-4H-imidazol-4-one], the IC50 (human BACE1) was 110 to 1000 nM and the melting point was 128 to 132 °C.

Cc1sccc1C1(c2cccc(-c3cncnc3)c2)N=C(N)N(C)C1=O (stereo not shown) [Example 27, 2-Amino-5-(2-methylthien-3-yl)-3-methyl-5-(3-pyrimidin-5-ylphenyl)-3,5-dihydro-4H-imidazol-4-one] showed an IC50 (human BACE1) of 110 to 1000 nM and a melting point of 154 to 159 °C.

Work on CCc1cc(C2(c3cccc(-c4cncnc4)c3)N=C(N)N(C)C2=O)cs1 (stereo not shown) [Example 29] yielded an IC50 (human BACE1) of 10 to 100 nM and a melting point of 144 to 146 °C.

CCc1cc(C2(c3cccc(-c4cncnc4)c3)N=C(N)N(C)C2=O)c(C)s1 (stereo not shown) [Example 31] gave an IC50 (human BACE1) of 110 to 1000 nM and a melting point of 128 to 134 °C.

Compound CN1C(=O)C(c2cccc(-c3cncnc3)c2)(c2csc(Cl)c2)N=C1N (stereo not shown) [Example 32] has an IC50 (human BACE1) of 10 to 100 nM and a melting point of 236 to 240 °C.

CN1C(=O)C(c2ccsc2)(c2cccc(-c3cnccn3)c2)N=C1N (stereo not shown) [Example 33] gave an IC50 (human BACE1) of 10 to 100 nM and a melting point of 223 °C.

With CCn1ccc(C2(c3cccc(Br)c3)N=C(N)N(C)C2=O)c1 (stereo not shown) [Example 50, 2-Amino-5-(3-bromophenyl)-5-(1-ethyl-1H-pyrrol-3-yl)-3-methyl-3,5-dihydro-4H-imidazol-4-one] the melting point was 138 to 140 °C.

With CN1C(=O)C(c2cccc(Br)c2)(c2ccn(CC(F)(F)F)c2)N=C1N (stereo not shown) [Example 51, 2-Amino-5-(3-bromophenyl)-3-methyl-5-[1-(2,2,2-trifluoroethyl)-1H-pyrrol-3-yl]-3,5-dihydro-4H-imidazol-4-one] the melting point was 74 to 76 °C.

With CN1C(=O)C(c2cccc(Br)c2)(c2cnn(CC(F)(F)F)c2)N=C1N (stereo not shown) [Example 81, 2-amino-5-(3-bromophenyl)-3-methyl-5-[1-(2,2,2-trifluoroethyl)-1H-pyrazol-4-yl]-3,5-dihydro-4H-imidazol-4-one] the melting point was 80 to 82 °C.

Work on CC(C)n1cc(C2(c3ccc(F)c(Br)c3)N=C(N)N(C)C2=O)cn1 (stereo not shown) [Example 95, 2-amino-5-(3-bromo-4-fluorophenyl)-5-(1-isopropyl-1H-pyrazol-4-yl)-3-methyl-3,5-dihydro-4H-imidazol-4-one] yielded a melting point of 80 to 82 °C.

CC(C)n1cc(C2(c3ccc(F)c(-c4cncnc4)c3)N=C(N)N(C)C2=O)cn1 (stereo not shown) [Example 96] gave a melting point of 110 to 113 °C.

In the case of CCC1(c2cc(C3(c4cccc(-c5cccnc5F)c4)N=C(N)N(C)C3=O)cs2)OCCO1 (stereo not shown) [Example 113], the melting point is reported as 93 to 103 °C.

For CCC(=O)c1cc(C2(c3cccc(-c4cccnc4F)c3)N=C(N)N(C)C2=O)cs1 (stereo not shown) [Example 115, 2-Amino-5-[3-(2-fluoro-pyridin-3-yl)-phenyl]-3-methyl-5-(5-propionyl-thiophen-3-yl)-3,5-dihydro-imidazol-4-one], the melting point was 98 to 112 °C.

CCC(=O)c1cc([C@]2(c3cccc(-c4cccnc4F)c3)N=C(N)N(C)C2=O)cn1CC(F)(F)F [Example 224A, (5S)-2-amino-5-[3-(2-fluoropyridin-3-yl)phenyl]-3-methyl-5-[5-propionyl-1-(2,2,2-trifluoroethyl)-1H-pyrrol-3-yl]-3,5-dihydro-4H-imidazol-4-one] showed an IC50 (human BACE1) of 10 to 100 nM.

CCC(=O)c1cc([C@@]2(c3cccc(-c4cccnc4F)c3)N=C(N)N(C)C2=O)cn1CC(F)(F)F [Example 224B, (5R)-2-amino-5-[3-(2-fluoropyridin-3-yl)phenyl]-3-methyl-5-[5-propionyl-1-(2,2,2-trifluoroethyl)-1H-pyrrol-3-yl]-3,5-dihydro-4H-imidazol-4-one] gave an IC50 (human BACE1) greater than 1000 nM.

CCn1cc(C2(c3cccc(-c4cccnc4F)c3)N=C(N)N(C)C2=O)cc1/C=N/OC (stereo not shown) [Example 241, 4-[2-Amino-4-[3-(2-fluoropyridin-3-yl)phenyl]-1-methyl-5-oxo-4,5-dihydro-1H-imidazol-4-yl]-1-ethyl-1H-pyrrole-2-carbaldehyde O-methyloxime hydrochloride] showed an IC50 (human BACE1) of 10 to 100 nM.

CCn1cc([C@]2(c3cccc(-c4cccnc4F)c3)N=C(N)N(C)C2=O)cc1C=O [Example 247, 4-{(4S)-2-Amino-4-[3-(2-fluoropyridin-3-yl)phenyl]-1-methyl-5-oxo-4,5-dihydro-1H-imidazol-4-yl}-1-ethyl-1H-pyrrole-2-carbaldehyde] showed an IC50 (human BACE1) of 10 to 100 nM.

Work on CC(=O)Cc1cc([C@]2(c3cccc(-c4cccnc4F)c3)N=C(N)N(C)C2=O)cn1CCCF [Example 248, (5S)-2-Amino-5-[1-(3-fluoropropyl)-5-(2-oxopropyl)-1H-pyrrol-3-yl]-5-[3-(2-fluoropyridin-3-yl)phenyl]-3-methyl-3,5-dihydro-4H-imidazol-4-one] yielded an IC50 (human BACE1) of 10 to 100 nM.
